In paper PMC5834492, “Antimycobacterial drug discovery using Mycobacteria-infected amoebae identifies anti-infectives and new molecular targets” (Scientific Reports, 2018):

Key:
[1] = system: M. marinum in BV2 microglial cells; assay type: cell-based, Mycobacterium marinum
[2] = system: D. discoideum GFP-ABD
[3] = system: M. marinum luxCDABE; assay type: cell-based, Mycobacterium marinum
[4] = system: BV2 cells
[5] = system: M. marinum in A. castellanii; assay type: cell-based, Mycobacterium marinum
[6] = system: Mtb H37Rv; design: method as in Sorrentino et al, 2015; conditions: ref Sorrentino et al, 2015; cited from earlier work
[7] = system: Mtb H37Rv in THP-1; design: method as in Sorrentino et al, 2015; conditions: ref Sorrentino et al, 2015, cited from earlier work; for Intracelullar MIC90 in THP-1: THP1 / Mtb H37Rv infection assay; for Extracellular MIC90/ Inracellular MIC90: ratio

| SMILES | Intracellular infection assays: BV2 / M. marinum [1] | Growth inhibition / Cytotoxicity assays: D. discoideum GFP-ABD [2] | Antibiotic assays: M. marinum luxCDABE [3] | Growth inhibition / Cytotoxicity assays: BV2 cells [4] | Intracellular infection assays: A. castellanii / M. marinum [5] | Extracellular MIC90 [6] | Intracelullar MIC90 in THP-1 [7] | Extracellular MIC90/ Inracellular MIC90 [7] |
| --- | --- | --- | --- | --- | --- | --- | --- | --- |
| O=C(NCc1ccccc1F)N1CCN(Cc2ccc(Br)s2)CC1 [GSK1758774A] | 1.05 | 0.85 | 1.00 | False | 1.13 | 6.6 µM | 5.55 µM | 1.19 |
| O=C(C1CCN(c2nnc(-n3cccc3)s2)CC1)N1CCC(Cc2ccccc2)CC1 [GSK2032710A] | 1.25 | 1.04 | 0.00 | False | 1.06 | 4.2 µM | 0.61 µM | 6.88 |
| Cc1ccc(C2CC(C(F)(F)F)n3ncc(C(=O)NCc4ccc5c(c4)OCO5)c3N2)cc1 (centres unmarked) [GSK937733A] | 1.64 | 0.94 | 1.00 | False | 1.38 | 5.4 µM | 0.61 µM | 8.85 |
| O=C(N[C@@H](Cc1ccccc1)C(=O)Nc1ccccc1N1CCOCC1)c1cccs1 [GSK1729177A] | 1.02 | 1.04 | 0.00 | True | 0.64 | 6.6 µM | 50 µM | 0.13 |
| c1ccc(-c2csc(Nc3nc4cc5c(cc4s3)OCO5)n2)nc1 [GSK735826A] | 1.47 | 0.86 | 0.00 | False | 0.98 | 2.7 µM | 1.85 µM | 1.46 |
| CCc1ccc(C2CC(C(F)(F)F)n3ncc(C(=O)NCc4cccs4)c3N2)cc1 (centres unmarked) [GSK1589671A] | 1.74 | 0.99 | 0.16 | False | 1.63 | 4.4 µM | 0.21 µM | 20.95 |
| Fc1ccccc1-c1noc(N2CCN(Cc3ccc4c(c3)OCO4)CC2)n1 [GSK1434490A] | 1.16 | 0.93 | 0.68 | False | 1.24 | 5.2 µM | 5.55 µM | 0.94 |
| FC(F)(F)c1cc(SCc2ccccc2)nc(-c2ccccn2)n1 [GSK847913A] | 1.39 | 0.94 | 0.00 | False | 0.90 | 3.3 µM | 1.85 µM | 1.78 |
| Cc1cc(NCCc2ccccc2)nc(/N=C(\N)Nc2ccc(Cl)cc2)n1 [CCI7967] | 1.01 | 0.89 | 0.00 | False | 1.16 | 2.4 µM | 0.61 µM | 3.93 |
| Cc1nn(Cc2ccccc2)c(Cl)c1C(=O)NC1CCCCCC1 [GSK636544A] | 1.35 | 0.93 | 0.00 | False | 1.07 | 5.2 µM | 1.85 µM | 2.81 |
